Tests used:
Type in all cases: biochemical
[1] = target: T1, wild type HIV-1 protease (Q7K) (Human immunodeficiency virus type 1 group M subtype B, UniProt P04585, Q495K); experiment: FRET HIV-1 protease inhibition assay, wild type; conditions: for fold higher Ki than the corresponding inhibitor with isobutyl group at P1': cyclopropylmethyl at P1' vs isobutyl analog, wild type; for Ki: wild type HIV-1 protease (Q7K), FRET, in triplicate, read-out: Ki
T1 construct: Wide type HIV-1 protease (Q7K)
Protocol: Biological Evaluation of Selected Compounds of the Invention. HIV protease inhibitor activities were determined by fluorescence resonance energy transfer (FRET) method. […] Inhibitor binding dissociation constant (Ki value) was obtained by nonlinear regression fitting to the plot of initial velocity as a function of inhibitor concentration based on Morrison equation.
(§1) The energy transfer donor (EDANS) and acceptor (DABCYL) were labeled at its two ends respectively to perform FRET. Fluorescence measurements were carried out on PTI fluorescence spectrophotometer (Photon Technology International) at 30° C. Excitation and emission wavelengths were set at 340 nm and 490 nm, respectively. Each reaction was recorded for about 10 min. Wide type HIV-1 protease (Q7K) and its MDR mutants M1 (L10I, G48V, I54V, L63P, V82A), M2 (D30N, L63P, N88D), and M3 (L10I, L63P, A71V, G73S, I84V, L90M) were desalted through PD-10 columns (Amersham Biosciences). Sodium Acetate (20 mM, pH 5) was used as elution buffer. Apparent protease concentrations were around 50 nM estimated by UV spectrophotometer (Shimadzu) at 280 nm. All inhibitors were dissolved in DMSO and diluted to appropriate concentrations. Protease (2 μL) and inhibitor (2 μL) or DMSO were mixed and incubated for 20-30 min at room temperature before initialing substrate cleavage reaction. Throughout this work, 150 μL of 1 μM substrate was used. Substrate buffer is composite of 0.1 M sodium acetate, 1 M sodium chloride, 1 mM ethylenediaminetetraacetic acid (EDTA), 1 mM dithiothreitol (DTT), 2% dimethylsulfoxide (DMSO) and 1 mg/mL bovine serum albumin (BSA) with an adjusted pH 4.7. Inhibitor binding dissociation constant (Ki) was obtained by nonlinear regression fitting (GraFit 5, Erithacus software) to the plot of initial velocity as a function of inhibitor concentrations based on Morrison equation.

[2] = target: HIV-1 protease MDR mutant M3 (L10I, L63P, A71V, G73S, I84V, L90M) (Human immunodeficiency virus type 1 group M subtype B, UniProt P04585, A559V/G561S/I572V/L498I/L551P/L578M/Q495K); conditions: qualitative statement
Text: (§2) The mutant variants were selected by examining the Stanford HIV-1 Drug Resistance Database (http://hivdb.stanford.edu) of HIV-1 infected-patient sequences of viral isolates. […] (Wu, T. D. et al. J. Virol. 2003, 77, 4836-4847.) These MDR mutant variants are L10I, G48V, I54V, L63P, V82A (M1), D30N, L63P, N88D (M2), and L10I, L63P, A71V, G73S, I84V, L90M (M3).
as §1

[3] = target: HIV-1 protease MDR mutant M1 (L10I, G48V, I54V, L63P, V82A) (Human immunodeficiency virus type 1 group M subtype B, UniProt P04585, G536V/I542V/L498I/L551P/Q495K/V570A); conditions: qualitative statement
Text: as §2, §1

[4] = target: HIV-1 protease MDR mutant M2 (D30N, L63P, N88D) (Human immunodeficiency virus type 1 group M subtype B, UniProt P04585, D518N/L551P/N576D/Q495K); conditions: qualitative statement
Text: as §2, §1

SMILES | fold higher Ki than the corresponding inhibitor with isobutyl group at P1' [1] | Ki [1] [nM] | other results
COc1cccc(S(=O)(=O)N(CC2CC2)C[C@@H](O)[C@H](Cc2ccccc2)NC(=O)[C@@H]2CN(c3cccc(F)c3)C(=O)O2)c1 [36b, (5S)—N-[(1S,2R)-1-Benzyl-3-[(cyclopropylmethyl)[(3-methoxyphenyl)sulfonyl]amino]-2-hydroxypropyl]-3-(3-fluorophenyl)-2-oxo-oxazolidine-S-carboxamide] | about 3 fold | 0.257 | 
COc1cccc(S(=O)(=O)N(CC2CC2)C[C@@H](O)[C@H](Cc2ccccc2)NC(=O)[C@@H]2CN(c3ccc(F)c(F)c3)C(=O)O2)c1 [36c, (5S)—N-[(1S,2R)-1-Benzyl-3-[(cyclopropylmethyl)[(3-methoxyphenyl)sulfonyl]amino]-2-hydroxypropyl]-3-(3,4-difluorophenyl)-2-oxo-oxazolidine-S-carboxamide] | ~9 fold | 0.58 | 
COc1cccc(S(=O)(=O)N(CC2CC2)C[C@@H](O)[C@H](Cc2ccccc2)NC(=O)[C@@H]2CN(c3ccc(C(C)=O)cc3)C(=O)O2)c1 [36f, (5S)-3-(4-Acetylphenyl)-N-[(1S,2R)-1-Benzyl-3-[(cyclopropylmethyl)[(3-methoxy-phenyl)sulfonyl]amino]-2-hydroxypropyl]-2-oxo-oxazolidine-S-carboxamide] | ~200 fold | 0.08 | 
Cc1cccc(C)c1OCC(=O)N[C@@H](Cc1ccccc1)[C@@H](O)C[C@H](Cc1ccccc1)NC(=O)[C@H](C(C)C)N1CCCNC1=O [LPV, lopinavir] |  |  | activity against M3 mutant relative to wild type (in words) [2]: significantly loses activity; activity against M1 mutant relative to wild type (in words) [3]: significantly loses activity; activity against M2 mutant relative to wild type (in words) [4]: retains high affinity
CC(C)CN(C[C@@H](O)[C@H](Cc1ccccc1)NC(=O)O[C@H]1CCOC1)S(=O)(=O)c1ccc(N)cc1 [amprenavir, reference compound] |  |  | inhibitory activity against wild type HIV-1 protease (in words) ([1]; wild type HIV-1 protease, qualitative statement): Ki value for wild type is also relatively high

Reference: patent publication US20110178092A1, “HIV-1 Protease Inhibitors” (priority 2005, published 2011)
